Experimental data published in ChEMBL document CHEMBL1132790, “Synthesis and biological activity of a bivalent nucleotide inhibitor of ribonucleotide reductase” (Bioorg Med Chem Lett, 2000).

Legend:
[1] = (§1) Compound was tested for ribonucleotide reductase (RR) activity by inhibition of dGTP-activated ADP reduction
[2] = as §1; remark: listed apart in the source

Compound	Ki [1] [µM]	Km [2] [µM]
Nc1ncnc2c1nc(S)n2C1O[C@@H](COP(=O)(O)OP(=O)(O)O)[C@H](O)[C@@H]1O (stereo partly drawn)	158	
Nc1nc(O)c2nc(Br)n(C3CC(O)C(COP(=O)(O)OP(=O)(O)OP(=O)(O)O)O3)c2n1 (stereo not drawn)	56	
Nc1ncnc2c1ncn2[C@@H]1O[C@H](COP(=O)(O)OP(=O)(O)O)[C@@H](O)[C@H]1O		34
C=CS(=O)(=O)CCCCCCS(=O)(=O)CCSc1nc2c(N)ncnc2n1C1O[C@@H](COP(=O)(O)OP(=O)(O)O)[C@H](O)[C@@H]1O (stereo partly drawn)	22	
Nc1ncnc2c1nc(Br)n2[C@@H]1O[C@H](COP(=O)(O)OP(=O)(O)O)[C@@H](O)[C@H]1O	77	

Further compounds by falling Ki [1], results first:

Ki [1] [µM]	Km [2] [µM]	Compound
19		Nc1ncnc2c1nc(SCCS(=O)(=O)CCCCCCS(=O)(=O)CCSc1nc3c(N)ncnc3n1C1O[C@H](COP(=O)(O)OP(=O)(O)O)[C@@H](O)[C@H]1O)n2C1O[C@H](COP(=O)(O)OP(=O)(O)O)[C@H](O)[C@@H]1O (stereo partly drawn)
13		Nc1nc(O)c2nc(S)n(C3CC(O)C(COP(=O)(O)OP(=O)(O)OP(=O)(O)O)O3)c2n1 (stereo not drawn)
9		C=CS(=O)(=O)CCCCCCS(=O)(=O)CCSc1nc2c(O)nc(N)nc2n1C1C[C@@H](O)[C@H](COP(=O)(O)OP(=O)(O)OP(=O)(O)O)O1 (stereo partly drawn)
